Assay results taken from US5057493A, “Novel antibiotics R106” (priority 1988, dated 1991).
Starred links: 1 amine or outer side, 2 acyl side, 3 side chain; linkers in the order of their positions; H or OH if unused. Non-standard residues stand in square brackets, D forms with d. Residues, ends and D or L forms follow the SMILES beside them. ξ: configuration not given here. ξNMeVal(3-OH) = CNC(C(=O)O)C(C)(C)O; NMeF = CN[CH](Cc1ccccc1)C(=O)O; X1 = CCC(C)C(O[*:1])C(=O)[*:2]; NMeV = CN[CH](C(=O)O)C(C)C

Legend:
[1] = tested on: Aspergillus nidulans TIMM 0112; assay: MIC by agar dilution method, casitone agar; type: cell-based; conditions: 27° C. for 7 days
[2] = tested on: Aspergillus flavus TIMM 0058; assay: MIC by agar dilution method, casitone agar; type: cell-based; conditions: 27° C. for 7 days
[3] = tested on: Candida albicans TIMM 1768; assay: Systemic candidiasis model of mice; type: in vivo, ICR strain mice; conditions: for Mean Survival Day: 3 hours after infection, then once a day for 4 days, 30 days; for Number of Animal Survived/Number of Animal Tested: 30 days after infection; for T/C: mean survival day treated vs control
Method: Candida albicans TIMM 1768 was cultured in Sabouraud-dextrose broth at 37° C. overnight, and the cells were collected and suspended in physiological saline. A cell suspension containing 1×10^6 cells was intravenously injected to ICR strain mice (5 week age, female). After 3 hours, a solution of an antibiotic R106 in TWEEN 80-ethanolphysiological saline (1:9:90, v/v) was subcutaneously, intravenously or orally given to the mice in various concentrations, and then once a day for 4 days the R106 drug solution was given. Mortality was assessed for 30 days after infection to determine the therapeutic effect.
T/C is a value which expresses the mean survival day of the treated group
to the mean survival day of the not treated control group by %.

[4] = tested on: Aspergillus commune TIMM 1331; assay: MIC by agar dilution method, casitone agar; type: cell-based; conditions: 27° C. for 7 days
[5] = tested on: Phialophora verrucosa TIMM 0903; assay: MIC by agar dilution method, casitone agar; type: cell-based; conditions: 27° C. for 7 days
[6] = tested on: Histoplasma capsulatum TIMM 0713; type: cell-based; conditions: 27° C. for 7 days
[7] = tested on: Geotrichum candidum TIMM 0694; assay: MIC by agar dilution method, casitone agar; type: cell-based; conditions: 27° C. for 7 days
[8] = tested on: Blastomyces dermatitidis TIMM 0126; assay: MIC by agar dilution method, casitone agar; type: cell-based; conditions: 27° C. for 7 days
[9] = tested on: Cladosporium bantianum TIMM 0343; assay: MIC by agar dilution method, casitone agar; type: cell-based; conditions: 27° C. for 7 days
[10] = tested on: Aspergillus niger TIMM 0113; assay: MIC by agar dilution method, casitone agar; type: cell-based; conditions: 27° C. for 7 days
[11] = tested on: Epidermophyton floccosum TIMM 0431; assay: MIC by agar dilution method, casitone agar; type: cell-based; conditions: 27° C. for 7 days
[12] = tested on: Exophiala werneckii TIMM 1334; assay: MIC by agar dilution method, casitone agar; type: cell-based; conditions: 27° C. for 7 days

## CCC(C)C1NC(=O)C2CCCN2C(=O)C(Cc2ccccc2)N(C)C(=O)C(Cc2ccccc2)NC(=O)C(C(C)C)N(C)C(=O)C(C(C)CC)OC(=O)C(C(C)(C)O)N(C)C(=O)C(CC(C)C)NC(=O)C(C(C)C)N(C)C1=O (centres unmarked) [Compound 1] (cyclo([ξNMeVal(3-OH)][X1][NMeV]F[NMeF]PI[NMeV]L); configuration not given here)
[1]
  Minimum Inhibitory Concentration: 0.16 µg/mL
[2]
  Minimum Inhibitory Concentration: > 80 µg/mL
[3]; i.v. 0.875 mg/kg
  Mean Survival Day: 14.6 ± 1.9 days
  Number of Animal Survived/Number of Animal Tested: 0/5
  T/C: 119%
[3]; i.v. 1.75 mg/kg
  Mean Survival Day: 18.2 ± 5.0 days
  Number of Animal Survived/Number of Animal Tested: 0/5
  T/C: 149%
[3]; i.v. 3.5 mg/kg
  Mean Survival Day: 19.2 ± 6.3 days
  Number of Animal Survived/Number of Animal Tested: 0/5
  T/C: 157%
[3]; i.v. 7 mg/kg
  Mean Survival Day: 29.0 ± 2.2 days
  Number of Animal Survived/Number of Animal Tested: 4/5
  T/C: 237%
[3]; i.v. 14 mg/kg
  Mean Survival Day: 26.6 ± 5.0 days
  Number of Animal Survived/Number of Animal Tested: 3/5
  T/C: 217%
[3]; p.o. 7 mg/kg
  Mean Survival Day: 14.8 ± 4.8 days
  Number of Animal Survived/Number of Animal Tested: 0/5
  T/C: 121%
[3]; p.o. 14 mg/kg
  Mean Survival Day: 23.2 ± 6.2 days
  Number of Animal Survived/Number of Animal Tested: 0/5
  T/C: 189%
[3]; p.o. 28 mg/kg
  Mean Survival Day: 30.0 ± 0 days
  Number of Animal Survived/Number of Animal Tested: 5/5
  T/C: 245%
[3]; s.c. 1.75 mg/kg
  Mean Survival Day: 14.2 ± 2.9 days
  Number of Animal Survived/Number of Animal Tested: 0/5
  T/C: 116%
[3]; s.c. 3.5 mg/kg
  Mean Survival Day: 18.8 ± 3.5 days
  Number of Animal Survived/Number of Animal Tested: 0/5
  T/C: 153%
[3]; s.c. 7 mg/kg
  Mean Survival Day: 22.4 ± 7.0 days
  Number of Animal Survived/Number of Animal Tested: 2/5
  T/C: 183%
[3]; s.c. 14 mg/kg
  Mean Survival Day: 27.2 ± 6.3 days
  Number of Animal Survived/Number of Animal Tested: 4/5
  T/C: 222%
[4]
  Minimum Inhibitory Concentration: 1.25 µg/mL
[5]
  Minimum Inhibitory Concentration: > 80 µg/mL
[6]
  Minimum Inhibitory Concentration: 0.16 µg/mL
[7]
  Minimum Inhibitory Concentration: 0.63 µg/mL
[8]
  Minimum Inhibitory Concentration: 0.31 µg/mL
[9]
  Minimum Inhibitory Concentration: 0.63 µg/mL
[10]
  Minimum Inhibitory Concentration: > 80 µg/mL
[11]
  Minimum Inhibitory Concentration: 2.5 µg/mL
[12]
  Minimum Inhibitory Concentration: 1.25 µg/mL
